Test results as given in patent US20240182460A1, “ALLOSTERIC CHROMENONE INHIBITORS OF PHOSPHOINOSITIDE 3-KINASE (PI3K) FOR THE TREATMENT OF DISEASE” (PETRA PHARMA CORPORATION, priority 2022, published 2024).

Assay: Metabolic stability and intrinsic clearance in human liver microsomes (MICS)
Assay type: in vitro ADME
Conditions: human, microsomes, pH 7.4
Protocol: Metabolic Stability and Intrinsic Clearance in Liver Microsomes (MICS)
One objective of this assay is to measure in vitro metabolic stability of a test compound in liver microsomes of one or more different species. The concentration of a control compound in the reaction system is evaluated by LC/MS/MS for calculating intrinsic clearance of a test compound and estimating the stability of the control compound and test compound in liver microsomes of one or more different species.
Microsomes (MICS). Human Liver Microsomes (HLM), Monkey Liver Microsomes (MKLM), Dog Liver Microsomes (DLM), Rat Liver Microsomes (RLM), and Mouse Liver Microsomes (MLM) are obtained at a concentration of 20 mg/mL protein from commercial sources and stored in a −80° C. freezer. Prior to use, liver microsomes are removed from the freezer and allowed to thaw in a 37° C. water bath and then stored on wet ice.
Stock Solutions. Test Compound (TC) Stock Solutions are prepared in DMSO at a concentration of 10 mM and stored for later use. Positive Control (PC) Stock Solutions of verapamil·HCL (FW: 491.1 g/mol) in DMSO are prepared at a concentration of 10 mM (4.91 mg/mL), and stored at the condition same as the stock solutions of test compounds.
Phosphate Buffer. Phosphate Buffer (100 mM, pH 7.4) is prepared by combining a Solution A and a Solution B as follows.
To prepare Solution A, 7.098 g of disodium hydrogen phosphate was combined with 500 mL of pure water and sonicated to dissolve. To prepare the Solution B, 3.400 g of potassium dihydrogen phosphate was combined with 250 mL of pure water and sonicated to dissolve. Solution A was placed on a stirrer and Solution B was slowly added into Solution A until the pH reached 7.4.
NADPH Solution. A 10 mM NADPH Solution is prepared by dissolving NADPH (MW: 833.4 g/mol) at 8.334 mg/mL in phosphate buffer (100 mM, pH 7.4).
Microsome Master Solution. A Microsome Master Solution is prepared by adding 6.25 μL microsomes (20 mg/mL) to 216.25 μL Phosphate Buffer (100 mM). The final concentration is Phosphate Buffer (100 mM); microsomes (0.5 mg/mL).
Dilution of Stock Solutions. The TC Stock Solutions (10 mM in DMSO) and the PC Stock Solutions (10 mM in DMSO) are diluted by adding 3 μL of the TC Stock Solution or the PC Stock Solution to 297 μL of 50% acetonitrile/50% water.
Incubation. Two separated experiments were performed as follows. a) With Cofactors (NADPH): 25 μL of 10 mM NADPH was added to the incubations. The final concentrations of
microsomes and NADPH were 0.5 mg/mL and 1 mM, respectively. b) Without Cofactors (NADPH): 25 μL of 100 mM Phosphate buffer was added to the incubations. The final concentration of microsomes was 0.5 mg/mL. The mixture was pre-warmed at 37° C. for 10 minutes.
The reaction was started with the addition of 2.5 μL of 100 μM PC solution or TC solutions.
Verapamil was used as PC in this study. The final concentration of test compound or control compound was 1 μM. The incubation solution was incubated in water batch at 37° C.
Reaction Termination. Aliquots of 30 μL were taken from the reaction solution at 0.5, 5, 15, 30 and 60 minutes and added to plates. The reaction was stopped by the addition of 5 volumes of cold acetonitrile and a solution containing 100 nM alprazolam, 200 nM caffeine and 100 nM tolbutamide.
Sampling. The plates containing the terminated reactions were centrifuged at 4000 rpm for 30 minutes. Supernatant of each compound (40 μL) was transferred into a 96-well analysis plate.
Four compound samples are pooled together into one cassette and diluted by adding 160 μL of pure water. All incubations are performed in duplicate.
Analysis and Data Processing. Quantitative LC-MS analysis is performed, and peak areas are determined from extracted ion chromatograms. Percent parent remaining was calculated from peak area of TC or PC. The slope value, k, is determined by linear regression of the natural logarithm of percent parent remaining vs. incubation time curve. […]
For `Cc1cc([C@@H](C)Oc2ccc(Cl)nc2S(C)(=N)=O)c2oc(-c3cnn(C)c3)c(C)c(=O)c2c1` (stereo partly drawn) [Example 147A, 8-[(1R)-1-[[6-Chloro-2-(methylsulfonimidoyl)-3-pyridyl]oxy]ethyl]-3,6-dimethyl-2-(1-methylpyrazol-4-yl)chromen-4-one], the microsomal CLint at 1 μM was < 50 µL/min/mg. In the case of `Cc1cc([C@@H](C)Oc2ccc(Cl)nc2S(N)(=O)=O)c2oc(-c3ccn[nH]3)c(C)c(=O)c2c1` [Example 8C, 6-Chloro-3-[(1R)-1-[3,6-dimethyl-4-oxo-2-(1H-pyrazol-5-yl)chromen-8-yl]ethoxy]pyridine-2-sulfonamide], the microsomal CLint at 1 μM is reported as < 50 µL/min/mg. In the case of `Cc1cc([C@@H](C)Oc2ccc(Cl)nc2S(N)(=O)=O)c2oc(-c3cccc(C#N)c3)c(C)c(=O)c2c1` [Example 24C, 6-Chloro-3-[(1R)-1-[2-(3-cyanophenyl)-3,6-dimethyl-4-oxo-chromen-8-yl]ethoxy]pyridine-2-sulfonamide], the microsomal CLint at 1 μM is reported as < 50 µL/min/mg. With `Cc1cc([C@@H](C)Oc2ccc(Cl)nc2-c2noc(=O)[nH]2)c2oc(-c3cnn4c3CCC4)c(C)c(=O)c2c1` [Example 102A, 3-[6-Chloro-3-[(1R)-1-[2-(5,6-dihydro-4H-pyrrolo[2,1-e]pyrazol-3-yl)-3,6-dimethyl-4-oxo-chromen-8-yl]ethoxy]-2-pyridyl]-4H-1,2,4-oxadiazol-5-one] the microsomal CLint at 1 μM was < 50 µL/min/mg. For `Cc1cc([C@@H](C)Oc2ccc(Cl)nc2C(N)=O)c2oc(-c3cnc4oc(C)nc4c3)c(C)c(=O)c2c1` [Example 130A, 6-Chloro-3-[(1R)-1-[3,6-dimethyl-2-(2-methyloxazolo[5,4-b]pyridin-6-yl)-4-oxo-chromen-8-yl]ethoxy]pyridine-2-carboxamide], the microsomal CLint at 1 μM was < 50 µL/min/mg. In the case of `Cc1cc([C@@H](C)Oc2ccc(Cl)nc2-c2noc(=O)[nH]2)c2oc(-c3cnc4c(c3)OCCO4)c(C)c(=O)c2c1` [Example 47A, 3-[6-Chloro-3-[(1R)-1-[2-(2,3-dihydro-[1,4]dioxino[2,3-b]pyridin-7-yl)-3,6-dimethyl-4-oxo-chromen-8-yl]ethoxy]-2-pyridyl]-4H-1,2,4-oxadiazol-5-one], the microsomal CLint at 1 μM is reported as < 50 µL/min/mg. With `Cc1cc([C@@H](C)Oc2ccc(Cl)nc2-c2noc(=O)[nH]2)c2oc(C3CC3)c(C)c(=O)c2c1` [Example 64A, 3-[6-Chloro-3-[(1R)-1-(2-cyclopropyl-3,6-dimethyl-4-oxo-chromen-8-yl)ethoxy]-2-pyridyl]-4H-1,2,4-oxadiazol-5-lone] the microsomal CLint at 1 μM was < 50 µL/min/mg. For `Cc1cc([C@@H](C)Oc2ccc(Cl)nc2-c2noc(=O)[nH]2)c2oc(-c3cnn4c3COCC4)c(C)c(=O)c2c1` [Example 41A, 3-[6-Chloro-3-[(1R)-1-[2-(6,7-dihydro-4H-pyrazolo[5,1-c][1,4]oxazin-3-yl)-3,6-dimethyl-4-oxo-chromen-8-yl]ethoxy]-2-pyridyl]-4H-1,2,4-oxadiazol-5-one], the microsomal CLint at 1 μM was < 50 µL/min/mg. For `Cc1cc([C@@H](C)Oc2cccnc2C(=O)NOC(C)(C)C)c2oc(-c3ccc4nn(C)cc4c3)c(C)c(=O)c2c1` [Example 24A, N-tert-Butoxy-3-[(1R)-1-[3,6-dimethyl-2-(2-methylindazol-5-yl)-4-oxo-chromen-8-yl]ethoxy]pyridine-2-carboxamide], the microsomal CLint at 1 μM was < 50 µL/min/mg. With `Cc1cc([C@@H](C)Oc2ccc(Cl)nc2-c2noc(=O)[nH]2)c2oc(-c3cnc4scnc4c3)c(C)c(=O)c2c1` [Example 1B, 3-[6-Chloro-3-[(1R)-1-(3,6-dimethyl-4-oxo-2-thiazolo[5,4-b]pyridin-6-yl-chromen-8-yl)ethoxy]-2-pyridyl]-4H-1,2,4-oxadiazol-5-one] the microsomal CLint at 1 μM was < 50 µL/min/mg. For `COc1cc(-c2oc3c([C@@H](C)Oc4ccc(Cl)nc4C(N)=O)cc(C)cc3c(=O)c2C)cc2cn(C)nc12` [Example 44C, 6-Chloro-3-[(1R)-1-[2-(7-methoxy-2-methyl-indazol-5-yl)-3,6-dimethyl-4-oxo-chromen-8-yl]ethoxy]pyridine-2-carboxamide], the microsomal CLint at 1 μM was < 50 µL/min/mg. With `Cc1cc([C@@H](C)Oc2ccc(Cl)nc2C(N)=O)c2oc(-c3cc4cn(C)nc4cc3F)c(C)c(=O)c2c1` [Example 42C, 6-Chloro-3-[(1R)-1-[2-(6-fluoro-2-methyl-indazol-5-yl)-3,6-dimethyl-4-oxo-chromen-8-yl]ethoxy]pyridine-2-carboxamide] the microsomal CLint at 1 μM was < 50 µL/min/mg. In the case of `Cc1cc([C@@H](C)Oc2ccc(Cl)nc2-c2noc(=O)[nH]2)c2oc(-c3ccc4nn(C)cc4c3)c(C)c(=O)c2c1` [Example 18A, 3-[6-Chloro-3-[(1R)-1-[3,6-dimethyl-2-(2-methylindazol-5-yl)-4-oxo-chromen-8-yl]ethoxy]-2-pyridyl]-4H-1,2,4-oxadiazol-5-one], the microsomal CLint at 1 μM is reported as < 50 µL/min/mg. With `Cc1cc([C@@H](C)Oc2ccc(Cl)nc2S(N)(=O)=O)c2oc(-c3cncnc3)c(C)c(=O)c2c1` [Example 38A, 6-Chloro-3-[(1R)-1-(3,6-dimethyl-4-oxo-2-pyrimidin-5-yl-chromen-8-yl)ethoxy]pyridine-2-sulfonamide] the microsomal CLint at 1 μM was < 50 µL/min/mg. With `CONC(=O)c1nc(Cl)ccc1O[C@H](C)c1cc(C)cc2c(=O)c(C)c(-c3ccc4nn(CCO)cc4c3)oc12` [Example 135C, 6-Chloro-3-[(1R)-1-[2-[2-(2-hydroxyethyl)indazol-5-yl]-3,6-dimethyl-4-oxo-chromen-8-yl]ethoxy]-N-methoxy-pyridine-2-carboxamide] the microsomal CLint at 1 μM was < 50 µL/min/mg. In the case of `Cc1cc([C@@H](C)Oc2cccnc2C(N)=O)c2oc(-c3ccc4nn(C)cc4c3)c(C)c(=O)c2c1` [Example 10A, 3-[(1R)-1-[3,6-Dimethyl-2-(2-methylindazol-5-yl)-4-oxo-chromen-8-yl]ethoxy]pyridine-2-carboxamide], the microsomal CLint at 1 μM is reported as < 50 µL/min/mg.

Same assay, conditions: pH 7.4; human liver microsomes 0.5 mg/mL, 1 μM compound; read-out: intrinsic clearance in human MICS
In the case of `Cc1cc([C@@H](C)Oc2cccnc2-c2noc(=O)[nH]2)c2oc(-c3ccccc3)c(C)c(=O)c2c1` [Example 3, 3-[3-[(1R)-1-(3,6-Dimethyl-4-oxo-2-phenyl-chromen-8-yl)ethoxy]-2-pyridyl]-4H-1,2,4-oxadiazol-5-one], the microsomal CLint at 1 μM is reported as < 50 µL/min/mg.
